System: MV-4-11 cells
Assay: Gene expression microarray analysis (Affymetrix PrimeView) and GSEA
Assay type: cell-based, human
Set-up: RFU PODN (11730768_x_at) / Fold change /veh PODN (11730768_x_at) / RFU LINC00158 (11744669_a_at) / Fold change /veh LINC00158 (11744669_a_at) / RFU DUSP10 (11751237_a_at) / Fold change /veh DUSP10 (11751237_a_at) / RFU ID3 (11757404_x_at) / Fold change /veh ID3 (11757404_x_at) / RFU PLEKHG5 (11737974_s_at) / Fold change /veh PLEKHG5 (11737974_s_at) / RFU LRRC4B (11730491_at) / Fold change /veh LRRC4B (11730491_at) / RFU GIMAP4 (11747438_a_at) / Fold change /veh GIMAP4 (11747438_a_at) / RFU KRT8 (11758183_x_at) / Fold change /veh KRT8 (11758183_x_at) / RFU CNN1 (11734310_a_at) / Fold change /veh CNN1 (11734310_a_at) / RFU VPS37D (11726825_at) / Fold change /veh VPS37D (11726825_at) / RFU C10orf10 (11716522_x_at) / Fold change /veh C10orf10 (11716522_x_at) / RFU KIR2DL2 /// KIR2DL4 /// KIR2DL5A /// KIR2DL5B /// KIR2DS1 /// KIR2DS2 /// KIR2DS3 /// KIR2DS4 /// KIR3DL3 /// KIR3DL3 /// KIR3DS1 (11738374_at) / Fold change /veh KIR2DL2 /// KIR2DL4 /// KIR2DL5A /// KIR2DL5B /// KIR2DS1 /// KIR2DS2 /// KIR2DS3 /// KIR2DS4 /// KIR3DL3 /// KIR3DL3 /// KIR3DS1 (11738374_at) / RFU C1QL1 (11718748_at) / Fold change /veh C1QL1 (11718748_at) / RFU TMPRSS4 (11747572_a_at) / Fold change /veh TMPRSS4 (11747572_a_at) / RFU HAMP (11756126_x_at) / Fold change /veh HAMP (11756126_x_at) / RFU RNFT2 (11725882_a_at) / Fold change /veh RNFT2 (11725882_a_at) / RFU NR4A2 (11747474_a_at) / Fold change /veh NR4A2 (11747474_a_at) / RFU ABCC12 (11746883_a_at) / Fold change /veh ABCC12 (11746883_a_at) / RFU TMEM136 (11760407_x_at) / Fold change /veh TMEM136 (11760407_x_at) / RFU CLDN22 /// WWC2 (11732394_at) / Fold change /veh CLDN22 /// WWC2 (11732394_at) / RFU HLA-DPB1 (11760878_x_at) / Fold change /veh HLA-DPB1 (11760878_x_at) / RFU SPINT1 (11716480_a_at) / Fold change /veh SPINT1 (11716480_a_at) / RFU GAP43 (11754022_s_at) / Fold change /veh GAP43 (11754022_s_at) / RFU A4GNT (11735810_at) / Fold change /veh A4GNT (11735810_at) / RFU PRB3 (11715151_x_at) / Fold change /veh PRB3 (11715151_x_at) / RFU TUBB4B (11761932_at) / Fold change /veh TUBB4B (11761932_at) / RFU CAPN14 (11732068_a_at) / Fold change /veh CAPN14 (11732068_a_at) / RFU TMCC2 (11721928_a_at) / Fold change /veh TMCC2 (11721928_a_at) / RFU IRGQ (11745062_a_at) / Fold change /veh IRGQ (11745062_a_at) / RFU FAM174B (11720279_a_at) / Fold change /veh FAM174B (11720279_a_at) / RFU TMPRSS4 (11748680_a_at) / Fold change /veh TMPRSS4 (11748680_a_at) / RFU FAM212B (11763350_a_at) / Fold change /veh FAM212B (11763350_a_at) / RFU PLEKHG5 (11743358_a_at) / Fold change /veh PLEKHG5 (11743358_a_at) / RFU ZSCAN30 (11745921_a_at) / Fold change /veh ZSCAN30 (11745921_a_at) / RFU CMKLR1 (11741424_a_at) / Fold change /veh CMKLR1 (11741424_a_at) / RFU LOC101060620 /// MAPK8IP1 (11723275_at) / Fold change /veh LOC101060620 /// MAPK8IP1 (11723275_at) / RFU SPTSSB (11747773_x_at) / Fold change /veh SPTSSB (11747773_x_at) / RFU PRSS12 (11739890_at) / Fold change /veh PRSS12 (11739890_at) / RFU BIN1 (11741810_x_at) / Fold change /veh BIN1 (11741810_x_at) / RFU WNT11 (11732464_a_at) / Fold change /veh WNT11 (11732464_a_at) / RFU C10orf10 (11716521_a_at) / Fold change /veh C10orf10 (11716521_a_at) / RFU C5orf56 (11738089_at) / Fold change /veh C5orf56 (11738089_at) / RFU CYB561 (11721691_x_at) / Fold change /veh CYB561 (11721691_x_at) / RFU ANKRD19P (11752326_a_at) / Fold change /veh ANKRD19P (11752326_a_at) / RFU OR2T12 /// OR2T33 /// OR2T8 (11738714_s_at) / Fold change /veh OR2T12 /// OR2T33 /// OR2T8 (11738714_s_at) / RFU VCAN (11748164_a_at) / Fold change /veh VCAN (11748164_a_at) / RFU JSRP1 (11732532_at) / Fold change /veh JSRP1 (11732532_at) / RFU KRTAP10-11 (11738290_x_at) / Fold change /veh KRTAP10-11 (11738290_x_at) / RFU MYO3A (11730013_a_at) / Fold change /veh MYO3A (11730013_a_at) / RFU EBF3 (11725865_a_at) / Fold change /veh EBF3 (11725865_a_at) / RFU CAMK2N1 (11719241_x_at) / Fold change /veh CAMK2N1 (11719241_x_at) / RFU C5orf56 (11738088_a_at) / Fold change /veh C5orf56 (11738088_a_at) / RFU OLFML3 (11715873_a_at) / Fold change /veh OLFML3 (11715873_a_at) / RFU LOC100653217 /// NTM (11731650_a_at) / Fold change /veh LOC100653217 /// NTM (11731650_a_at) / RFU MAPK11 (11762145_a_at) / Fold change /veh MAPK11 (11762145_a_at) / RFU FIZ1 (11724087_x_at) / Fold change /veh FIZ1 (11724087_x_at) / RFU OASL (11726364_x_at) / Fold change /veh OASL (11726364_x_at) / RFU SOX15 (11748057_x_at) / Fold change /veh SOX15 (11748057_x_at) / RFU CD79A (11719716_a_at) / Fold change /veh CD79A (11719716_a_at) / RFU HIST1H1D (11736915_at) / Fold change /veh HIST1H1D (11736915_at) / RFU CASKIN2 (11723855_a_at) / Fold change /veh CASKIN2 (11723855_a_at) / RFU LOC730098 (11760151_x_at) / Fold change /veh LOC730098 (11760151_x_at) / RFU OR4N2 (11742367_at) / Fold change /veh OR4N2 (11742367_at) / RFU PRRT2 (11749266_a_at) / Fold change /veh PRRT2 (11749266_a_at) / RFU SNX32 (11753110_a_at) / Fold change /veh SNX32 (11753110_a_at) / RFU CDHR5 (11726645_a_at) / Fold change /veh CDHR5 (11726645_a_at) / RFU RCAN1 (11760418_a_at) / Fold change /veh RCAN1 (11760418_a_at) / RFU FAM167A (11723789_a_at) / Fold change /veh FAM167A (11723789_a_at) / RFU FAM26E (11764081_at) / Fold change /veh FAM26E (11764081_at) / RFU ISYNA1 (11749810_s_at) / Fold change /veh ISYNA1 (11749810_s_at) / RFU ACY1 (11761880_at) / Fold change /veh ACY1 (11761880_at) / RFU 11764098_at / Fold change /veh 11764098_at / RFU SAMD14 (11745864_x_at) / Fold change /veh SAMD14 (11745864_x_at) / RFU NPB (11741838_a_at) / Fold change /veh NPB (11741838_a_at) / RFU TMPRSS6 (11731388_a_at) / Fold change /veh TMPRSS6 (11731388_a_at) / RFU KRTAP10-2 (11738614_at) / Fold change /veh KRTAP10-2 (11738614_at) / RFU ARHGAP8 /// PRR5-ARHGAP8 (11727945_x_at) / Fold change /veh ARHGAP8 /// PRR5-ARHGAP8 (11727945_x_at) / RFU KRTAP5-7 /// NADSYN1 (11734609_at) / Fold change /veh KRTAP5-7 /// NADSYN1 (11734609_at) / RFU RASL12 (11751679_a_at) / Fold change /veh RASL12 (11751679_a_at) / RFU CDKN2B (11736163_a_at) / Fold change /veh CDKN2B (11736163_a_at) / RFU PRF1 (11729649_at) / Fold change /veh PRF1 (11729649_at) / RFU, ZNF638 /// ZNF638-IT1 / Fold change vs veh, ZNF638 /// ZNF638-IT1 / RFU, PANK3 / Fold change vs veh, PANK3 / RFU, SH3YL1 / Fold change vs veh, SH3YL1 / RFU, ZEB2 / Fold change vs veh, ZEB2 / RFU, NRIP1 / Fold change vs veh, NRIP1 / RFU, PTTG1IP / Fold change vs veh, PTTG1IP / RFU, CAPN2 / Fold change vs veh, CAPN2 / RFU, MED14 / Fold change vs veh, MED14 / RFU, SNORA58 / Fold change vs veh, SNORA58 / RFU, C1orf63 / Fold change vs veh, C1orf63 / RFU, LRRFIP1 / Fold change vs veh, LRRFIP1 / RFU, NDUFAF7 / Fold change vs veh, NDUFAF7 / RFU, SLC12A2 / Fold change vs veh, SLC12A2 / RFU, IBTK / Fold change vs veh, IBTK / RFU, ESF1 / Fold change vs veh, ESF1 / Fold change vs veh, TMEM50B / RFU, TAOK1 / Fold change vs veh, TAOK1 / RFU, ACBD3 / Fold change vs veh, ACBD3 / RFU, TMA16 / Fold change vs veh, TMA16 / RFU, RWDD3 / Fold change vs veh, RWDD3 / RFU, BCAT1 / Fold change vs veh, BCAT1 / RFU, EDEM3 / Fold change vs veh, EDEM3 / RFU, TMEM33 / Fold change vs veh, TMEM33 / RFU, WDR75 / Fold change vs veh, WDR75 / RFU, AHCTF1 / Fold change vs veh, AHCTF1 / RFU, TFRC / Fold change vs veh, TFRC / RFU, ZDHHC17 / Fold change vs veh, ZDHHC17 / RFU, NOM1 / Fold change vs veh, NOM1 / RFU, ARL8B / Fold change vs veh, ARL8B / RFU, ZBTB11 / Fold change vs veh, ZBTB11 / RFU, TAMM41 / Fold change vs veh, TAMM41 / RFU, KIAA1704 /// LOC100996395 / Fold change vs veh, KIAA1704 /// LOC100996395 / RFU, ING1 / Fold change vs veh, ING1 / RFU, TRMT61B / Fold change vs veh, TRMT61B / RFU, FUBP3 / Fold change vs veh, FUBP3 / RFU, TP53 / Fold change vs veh, TP53 / RFU, TNKS2 / Fold change vs veh, TNKS2 / RFU, ZFP14 / Fold change vs veh, ZFP14 / RFU, ACTR2 / Fold change vs veh, ACTR2 / RFU, PPP3R1 / Fold change vs veh, PPP3R1 / RFU, PIK3R1 / Fold change vs veh, PIK3R1 / RFU, HNRNPA1 / Fold change vs veh, HNRNPA1 / RFU, RNF170 / Fold change vs veh, RNF170 / RFU, ZNF28 / Fold change vs veh, ZNF28 / RFU, RNGTT / Fold change vs veh, RNGTT / RFU, OGT / Fold change vs veh, OGT / RFU, BRD1 / Fold change vs veh, BRD1 / RFU, MARS / Fold change vs veh, MARS / RFU, ZNF655 / Fold change vs veh, ZNF655 / RFU, FAHD1 / Fold change vs veh, FAHD1 / RFU, BDP1 / Fold change vs veh, BDP1 / RFU, LRRCC1 / Fold change vs veh, LRRCC1 / RFU, ARID1A / Fold change vs veh, ARID1A / RFU, ZNF146 / Fold change vs veh, ZNF146 / RFU, ZNF330 / Fold change vs veh, ZNF330 / RFU, GPN3 / Fold change vs veh, GPN3 / RFU, C9orf123 / Fold change vs veh, C9orf123 / RFU, N4BP2L2 / Fold change vs veh, N4BP2L2 / RFU, ARFIP1 / Fold change vs veh, ARFIP1 / RFU, FAM179B / Fold change vs veh, FAM179B / RFU, BCL10 / Fold change vs veh, BCL10 / RFU, UHRF1BP1L / Fold change vs veh, UHRF1BP1L / RFU, BET1 / Fold change vs veh, BET1 / RFU, CNOT2 / Fold change vs veh, CNOT2 / RFU, ZNF268 / Fold change vs veh, ZNF268 / Fold change vs veh, ZNF507 / RFU, DGCR2 / Fold change vs veh, DGCR2 / RFU, WDSUB1 / Fold change vs veh, WDSUB1 / Fold change vs veh, HSP90B1 /// MIR3652 / RFU, ADSS / Fold change vs veh, ADSS / RFU, GK / Fold change vs veh, GK / RFU, ZNF148 / Fold change vs veh, ZNF148 / RFU, TAF9 / Fold change vs veh, TAF9 / RFU, SLC1A5 / Fold change vs veh, SLC1A5 / RFU, SLMO2 / Fold change vs veh, SLMO2 / RFU, ABCC4 / Fold change vs veh, ABCC4 / RFU, LOC101060439 /// RAP1B / Fold change vs veh, LOC101060439 /// RAP1B / RFU, RFX7 / Fold change vs veh, RFX7 / RFU, GTPBP10 / Fold change vs veh, GTPBP10 / RFU, CNEP1R1 / Fold change vs veh, CNEP1R1 / RFU, BIVM-ERCC5 /// ERCC5 / Fold change vs veh, BIVM-ERCC5 /// ERCC5 / RFU, ILF3 / Fold change vs veh, ILF3 / RFU 11762660_at / Fold change /veh 11762660_at / RFU VCAN (11757783_s_at) / Fold change /veh VCAN (11757783_s_at) / RFU DDX43 (11728927_at) / Fold change /veh DDX43 (11728927_at) / RFU KRT8 (11758188_x_at) / Fold change /veh KRT8 (11758188_x_at) / RFU NKD1 (11759106_at) / Fold change /veh NKD1 (11759106_at) / RFU SRD5A1 (11742802_a_at) / Fold change /veh SRD5A1 (11742802_a_at) / RFU TPSAB1 /// TPSB2 (11721975_s_at) / Fold change /veh TPSAB1 /// TPSB2 (11721975_s_at) / RFU GSTM3 (11746129_a_at) / Fold change /veh GSTM3 (11746129_a_at) / RFU IL23R (11737362_x_at) / Fold change /veh IL23R (11737362_x_at) / RFU TMEM51 (11727254_a_at) / Fold change /veh TMEM51 (11727254_a_at) / RFU PIWIL2 (11732686_x_at) / Fold change /veh PIWIL2 (11732686_x_at) / RFU ORM1 (11744905_x_at) / Fold change /veh ORM1 (11744905_x_at) / RFU CCDC152 (11743942_at) / Fold change /veh CCDC152 (11743942_at) / RFU ECM1 (11717891_a_at) / Fold change /veh ECM1 (11717891_a_at) / RFU IL23R (11748794_a_at) / Fold change /veh IL23R (11748794_a_at) / RFU TNFAIP8L3 (11732012_x_at) / Fold change /veh TNFAIP8L3 (11732012_x_at) / RFU MBOAT4 (11741988_at) / Fold change /veh MBOAT4 (11741988_at) / RFU 11764193_at / Fold change /veh 11764193_at / RFU TMEM53 (11763286_at) / Fold change /veh TMEM53 (11763286_at) / RFU MAGEB2 (11727129_at) / Fold change /veh MAGEB2 (11727129_at) / RFU TMEM200A (11744735_a_at) / Fold change /veh TMEM200A (11744735_a_at) / RFU CCDC152 (11751479_a_at) / Fold change /veh CCDC152 (11751479_a_at) / RFU FAM211A (11726209_a_at) / Fold change /veh FAM211A (11726209_a_at) / RFU RGS16 (11746705_a_at) / Fold change /veh RGS16 (11746705_a_at) / RFU VCAN (11755009_s_at) / Fold change /veh VCAN (11755009_s_at) / RFU RHOB (11743442_s_at) / Fold change /veh RHOB (11743442_s_at) / RFU RGS16 (11720943_a_at) / Fold change /veh RGS16 (11720943_a_at) / RFU RGS16 (11720944_at) / Fold change /veh RGS16 (11720944_at) / RFU, VPS4B / Fold change vs veh, VPS4B / RFU, CREB1 / Fold change vs veh, CREB1 / RFU, DNAJC13 / Fold change vs veh, DNAJC13 / RFU, GNAQ / Fold change vs veh, GNAQ / RFU, CDK5R1 / Fold change vs veh, CDK5R1 / RFU, ZRANB3 / Fold change vs veh, ZRANB3 / RFU, CUL4A / Fold change vs veh, CUL4A / RFU, CCNY / Fold change vs veh, CCNY / RFU, UFL1 / Fold change vs veh, UFL1 / RFU, COG3 / Fold change vs veh, COG3 / RFU, DIAPH2 / Fold change vs veh, DIAPH2 / RFU, SKA2 / Fold change vs veh, SKA2 / RFU, AFF3 / Fold change vs veh, AFF3 / RFU, LMF1 / Fold change vs veh, LMF1 / RFU, IPO11 / Fold change vs veh, IPO11 / RFU, DFFB / Fold change vs veh, DFFB / RFU, FOXP1 / Fold change vs veh, FOXP1 / RFU, CARD8 / Fold change vs veh, CARD8 / RFU, STRN3 / Fold change vs veh, STRN3 / RFU, ADK / Fold change vs veh, ADK / RFU, RASSF2 / Fold change vs veh, RASSF2 / RFU, WIPF1 / Fold change vs veh, WIPF1 / RFU, LARP1B / Fold change vs veh, LARP1B / RFU, RASA1 / Fold change vs veh, RASA1 / RFU, RB1 / Fold change vs veh, RB1 / RFU, PPFIA1 / Fold change vs veh, PPFIA1 / RFU, MAT2A / Fold change vs veh, MAT2A / RFU, CCT5 / Fold change vs veh, CCT5 / RFU, WDR92 / Fold change vs veh, WDR92 / RFU, CUX1 / Fold change vs veh, CUX1 / RFU, TTC7A / Fold change vs veh, TTC7A / RFU, TMEM135 / Fold change vs veh, TMEM135 / RFU, DEPTOR / Fold change vs veh, DEPTOR / RFU, CPM / Fold change vs veh, CPM / RFU, DNAJB6 / Fold change vs veh, DNAJB6 / RFU, CACNA2D3 / Fold change vs veh, CACNA2D3 / RFU, DTX4 / Fold change vs veh, DTX4 / RFU, TFCP2 / Fold change vs veh, TFCP2 / RFU, GMCL1 /// GMCL1P1 / Fold change vs veh, GMCL1 /// GMCL1P1 / RFU, AEBP2 / Fold change vs veh, AEBP2 / RFU, SNHG1 /// SNORD22 /// SNORD25 /// SNORD26 /// SNORD27 /// SNORD28 /// SNORD29 /// SNORD31 / Fold change vs veh, SNHG1 /// SNORD22 /// SNORD25 /// SNORD26 /// SNORD27 /// SNORD28 /// SNORD29 /// SNORD31 / Fold change (Aza/veh), C12orf56 (ProbeSet 11735607_a_at) / Fold change (ACY-1035/veh), C12orf56 (ProbeSet 11735607_a_at) / Fold change (Aza/veh), FGFR1OP (ProbeSet 11751329_s_at) / Fold change (ACY-1035/veh), FGFR1OP (ProbeSet 11751329_s_at) / Fold change (Aza/veh), VPS36 (ProbeSet 11739960_a_at) / Fold change (ACY-1035/veh), VPS36 (ProbeSet 11739960_a_at) / RFU SYPL1 (11715823_x_at) / Fold change /veh SYPL1 (11715823_x_at) / RFU IGFBP7 (11715501_s_at) / Fold change /veh IGFBP7 (11715501_s_at) / RFU REEP3 (11722064_at) / Fold change /veh REEP3 (11722064_at) / RFU IGLL1 (11728026_x_at) / Fold change /veh IGLL1 (11728026_x_at): dose or concentration left out as unconfirmed
Conditions: MV-4-11 cells, 48 hours

SMILES: Nc1ccc(-c2cccs2)cc1NC(=O)c1ccc2c(c1)cc(C1CC1)n2CCN1CCOCC1 [ACY-1035]
- Fold change /veh 11764193_at: 1.19

— paper PMC5218480 (PLoS ONE, 2017)
